Calls of active or inactive are those of the source. No cut-off for these calls is given here.
Tests used:
[1] = target: T1, G-protein coupled bile acid receptor 1 (Homo sapiens) (UniProt Q8TDU6); experiment: Agonist activity at TGR5 (unknown origin) assessed as cAMP level up to 30 uM; assay type: functional
T1 sequence (whole entry): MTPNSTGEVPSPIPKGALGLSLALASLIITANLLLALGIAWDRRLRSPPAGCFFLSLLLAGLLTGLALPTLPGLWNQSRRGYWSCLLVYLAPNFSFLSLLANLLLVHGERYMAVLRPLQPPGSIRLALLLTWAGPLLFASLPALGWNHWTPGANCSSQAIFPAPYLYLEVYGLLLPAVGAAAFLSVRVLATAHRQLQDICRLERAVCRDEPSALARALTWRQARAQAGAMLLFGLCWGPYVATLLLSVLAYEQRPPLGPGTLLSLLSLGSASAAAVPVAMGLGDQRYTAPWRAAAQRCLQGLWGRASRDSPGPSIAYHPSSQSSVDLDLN

Ephrin type-A receptor 8 = target: T2, Ephrin type-A receptor 8 (Homo sapiens, UniProt P29322); experiment: (§1) Displacement of biotinylated ephrin-A1-Fc from EphA8 (unknown origin) preincubated for 1 hr followed by biotinylated-ephrin-A1-Fc addition measured after 4 hrs by ELISA
T2 sequence (P29322 whole entry): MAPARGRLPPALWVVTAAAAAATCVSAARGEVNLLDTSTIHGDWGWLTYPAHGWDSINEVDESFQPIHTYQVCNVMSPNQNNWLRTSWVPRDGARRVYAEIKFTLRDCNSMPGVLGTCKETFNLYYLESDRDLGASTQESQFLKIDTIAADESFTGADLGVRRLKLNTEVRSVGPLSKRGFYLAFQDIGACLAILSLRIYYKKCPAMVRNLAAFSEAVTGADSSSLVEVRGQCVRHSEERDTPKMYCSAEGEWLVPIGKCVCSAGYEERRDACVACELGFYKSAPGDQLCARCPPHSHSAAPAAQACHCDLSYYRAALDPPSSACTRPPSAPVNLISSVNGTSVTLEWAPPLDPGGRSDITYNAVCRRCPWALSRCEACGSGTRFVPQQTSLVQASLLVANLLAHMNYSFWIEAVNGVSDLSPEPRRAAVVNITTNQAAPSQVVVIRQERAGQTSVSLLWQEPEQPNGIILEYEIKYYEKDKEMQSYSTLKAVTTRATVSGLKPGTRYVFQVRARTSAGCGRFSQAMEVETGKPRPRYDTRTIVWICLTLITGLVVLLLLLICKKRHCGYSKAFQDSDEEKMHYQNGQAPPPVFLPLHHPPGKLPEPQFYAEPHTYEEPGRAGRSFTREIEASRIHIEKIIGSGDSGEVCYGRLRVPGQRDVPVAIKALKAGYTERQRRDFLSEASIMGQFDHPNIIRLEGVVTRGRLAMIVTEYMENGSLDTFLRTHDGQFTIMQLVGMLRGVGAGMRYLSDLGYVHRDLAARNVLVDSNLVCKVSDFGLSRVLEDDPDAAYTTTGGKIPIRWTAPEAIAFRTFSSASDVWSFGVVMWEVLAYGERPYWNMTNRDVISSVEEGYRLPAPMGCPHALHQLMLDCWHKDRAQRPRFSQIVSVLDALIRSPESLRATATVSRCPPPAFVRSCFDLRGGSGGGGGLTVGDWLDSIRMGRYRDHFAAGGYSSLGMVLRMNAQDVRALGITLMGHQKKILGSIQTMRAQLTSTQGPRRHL

[2] = target: T3, Ephrin type-A receptor 8 (Homo sapiens) (UniProt P29322); experiment: as §1
T3 sequence (whole entry): T2 sequence (P29322 whole entry)

[3] = Metabolic stability in mouse liver S9 fractions assessed as compound remaining at 1 uM after 1 hr by HPLC-ESI-MS/MS analysis in presence of NADPH regenerating system; assay type: ADME, subcellular, Liver S9 fraction; details: read-out: Stability

With C[C@H](CCC(=O)N[C@@H](Cc1c[nH]c2ccccc12)C(=O)O)[C@H]1CC[C@H]2[C@@H]3CC=C4C[C@@H](O)CC[C@]4(C)[C@H]3CC[C@]12C the Activity [1] was “inactive”, the IC50 (Ephrin type-A receptor 8) was 3.1 µM and the inhibition [2] was “Dose-dependent effect”. The remaining at 1 h, 1 µM [3] was 70%.
